In publication PMC9323733, “Efficacy of Vafidemstat in Experimental Autoimmune Encephalomyelitis Highlights the KDM1A/RCOR1/HDAC Epigenetic Axis in Multiple Sclerosis” (Pharmaceutics, 2022):

How the values were obtained:
Assay type in all cases: in vivo, mouse
[1] = test system: spinal cord of EAE mice; assay: EAE, inflammatory mediators in spinal cord protein extracts (ELISA); conditions: ORY-2001 0.5 mg/kg; for IFNγ and IP-10 levels in spinal cord / IL-1β levels in spinal cord: disease peak, FTY720 1.0 mg/kg
Text: (§1) For mechanistic studies in the EAE model, animals were divided into two groups, and samples were collected on day 26 post-immunization (sub-chronic phase), 3 days after the last dose, or on day 17 post-immunization for evaluating the effector phase. For this, mice were euthanized by intracardiac perfusion with saline (0.9%NaCl in H2O MilliQ) after pentobarbital anesthesia (Doletal), and blood samples, spleen, draining lymph nodes (DLNs: cervical, inguinal and axillary), brain, and spinal cord were removed. Serum samples were used for autoantibodies determination. Single-cell suspensions were obtained from spleen or pooled DLNs and used for the determination of cell number and auto-reactive and inflammatory responses, as described later. Brain and spinal segments of the cervical and lumbar regions were prepared separately and processed for RNA isolation, protein extraction, and histopathological analysis. Proteins were extracted from cervical and lumbar segments of spinal cord and brain from EAE mice via homogenization (50 mg tissue/mL) in lysis buffer (50 mM Tris-HCl, pH 7.4, 0.5 mM DTT, and 10 µg/mL proteinase inhibitors PMSF, pepstatin, and leupeptin). Samples were centrifuged (20.000× g, 15 min, 4 °C), and the supernatants were assayed for protein concentration (using Bradford method) and for cytokine/chemokine contents by using specific sandwich ELISAs according to manufacturer’s recommendations (BD Bioscience, Heidelberg, Germany and Peprotech, London, UK). In the TMEV model on day 86 after infection, mice were anesthetized and perfused transcardially, as described above. Spinal cords were obtained via extrusion with saline and prepared for further study.

[2] = test system: spinal cord of EAE mice; assay: EAE, histopathology of spinal cord (demyelination plaques, infiltration); conditions: ORY-2001 0.5 mg/kg; for infiltrating/demyelinating plaques in spinal cord: day 17, FTY720 1.0 mg/kg
Procedure: Cervical and lumbar spinal cord segments of spinal cords obtained from EAE mice sacrificed on day 17 or 26 post-immunization were divided and processed for inclusion and sectioning in paraffin and for inclusion in an optimal cutting temperature (OCT) compound and future cryosectioning of the samples. Spinal cord segments were immediately fixed with buffered 10% formalin for 48 h, dehydrated and included in paraffin using standard techniques. For a preliminary analysis, transversal sections (4 µm thickness) were stained with Luxol fast blue, cresyl violet, and hematoxylin following the Klüver–Barrera technique and were analyzed for the presence of areas of demyelination and cell infiltration using a light microscope (Leica, DM2000). After hematoxylin/eosin staining in the TMEV model, cell infiltration in the cervical and thoracic spinal cord was evaluated according to the criteria of Mansilla et al.: score 0: no lesion; 1: cellular infiltration only in the meninges; 2: very discrete and superficial infiltrates in the parenchyma; 3: moderate infiltration (less than 25%) in the white matter; 4: severe infiltration (less than 50%) in the white matter; and 5: high severe infiltration (>50%) in the white matter. The remaining spinal cord segments from EAE mice and from mice of the TMEV model were fixed with 4% paraformaldehyde/0.1 M phosphate buffer pH 7.4 for 12 h at 4 °C, cryopreserved in 30% sucrose in PBS for 24 h, embedded in OCT in liquid nitrogen, and stored at −80 °C prior to cryosectioning and immunohistochemistry. 20 and 30 µm-thick transversal cryostat sections from Tissue Tek embedded tissue were obtained from EAE and TMEV samples, respectively, and kept in a cryoprotection solution (30% ethylene glycol, 10 mg/mL polyvinylpyrrolidone-40 (PVP-40), 300 mg/mL sucrose in 60 mM PB) at −20 °C. Mouse #6 from the TMEV + vehicle group died on day 77 post-infection and was therefore not included.

[3] = test system: C57BL/6 mice with chronic EAE; assay: Chronic EAE induced by MOG35–55, clinical score; conditions: for mean clinical score: EAE effector phase, p.o. 5 days from day 12, FTY720 1.0 mg/kg
Procedure: Mice also received i.p. injections of 200 ng of pertussis toxin on days 0 and 2 [32]. Immunized mice were randomly distributed in different groups. […] MPTP is a prodrug which is converted to the neurotoxin 1-methyl-4-phenylpyridinium (MPP+) by MAO-B in vivo.
Compounds were administered once daily for five consecutive days in two cycles, from day 12 to 16 and from day 19 to 23 post-immunization. […] HPβCD was included to facilitate dissolution. Mice were scored daily for signs of EAE according to the following clinical scoring system: 0, no clinical signs; 0.5, partial loss of tail tonicity; 1, complete loss of tail tonicity; 2, flaccid tail and abnormal gait; 3, complete hind leg paralysis; 4, hind leg paralysis with hind body paresis; 5, hind and foreleg paralysis; and 6, death. Intermediate phenotypes were scored as a half integer. Animals were sacrificed when they kept a score of 5 more than 24 h. Investigators which administered the compounds and scored the animals were blinded to the treatments.

[4] = test system: spleen and lymph nodes of EAE mice; assay: EAE, cell number in spleen and lymph nodes, flow cytometry of CD4 T cells; conditions: ORY-2001 0.5 mg/kg; for CD4+ T cell population of the lymph nodes / cellularity in lymph nodes / number of effector T cells in lymph nodes: FTY720 1.0 mg/kg
Text: as §1
For the identification of naïve, memory, and effector T cells, lymph nodes were isolated from different EAE groups at the peak of the disease. Cells were collected and distributed into polystyrene tubes for flow cytometry at 0.5 × 10^6 cells/tube and washed twice with washing buffer (10% FBS, 1% sodium azide in PBS; 300 g 5 min 4 °C). Before specific staining, cells were blocked with mouse BD Fc block to avoid nonspecific binding to Fc- receptors and marked with 7-AAD (7-amino-actinomycin D, Calbiochem, San Diego, CA, USA) to distinguish dead cells. Then, cells were incubated with PerCP/Cy5.5 conjugated anti-CD4, APC conjugated anti- CD62L (2 µg/mL), and PE conjugated anti-CD44 mAbs (0.5 µg/mL), following manufacturer’s recommendations (BioLegend) (Supplementary Materials Table S4). Briefly, after washing, cells were stained for 30 min at 4 °C, washed again, and analyzed in a FACSCalibur flow cytometer (BD Pharmingen, Le Pont-de-Claix, France). We used isotype-matched antibodies as controls.

[5] = EAE experiment 2, 0.5 or 1 mg/kg ORY-2001

**Q.** Which “IFNγ and IP-10 levels in spinal cord” value [1] does the source give for `CCCCCCCCc1ccc(CCC(N)(CO)CO)cc1` [FTY720, Fingolimod, reference compound] here?
**A.** Its value is “this decrease did not reach significance”.

**Q.** And the “IL-1β levels in spinal cord” value [1]?
**A.** Its value is “showed the same tendency”.

**Q.** What about the “infiltrating/demyelinating plaques in spinal cord” value [2] of the same compound?
**A.** Its value is “reduced the number and size of demyelinating plaques in cervical but not in lumbar sections”.

**Q.** What about the mean clinical score ([3]; ORY-2001 0.5 mg/kg) of the same compound?
**A.** Its mean clinical score is “reduced the mean clinical score”.

**Q.** What about the “CD4+ T cell population of the lymph nodes” value ([4]; day 17) of the same compound?
**A.** The value was “increased the CD^4+ T cell population of the lymph nodes”.

**Q.** What about the “cellularity in lymph nodes” value ([4]; day 17) of the same compound?
**A.** The value was “increased the cellularity in lymph nodes”.

**Q.** What about the “number of effector T cells in lymph nodes” value ([4]; day 17) of the same compound?
**A.** The value was “significantly increased”.

**Q.** How did the “IFNγ, IL-17 and IP-10 levels in spinal cord” value ([1]; day 26, ORY-LSD1 180 µg/kg) turn out when `Nc1nnc(CN[C@@H]2C[C@H]2c2ccc(OCc3ccccc3)cc2)o1` [ORY-2001] was run?
**A.** The value was “no significant changes”.

**Q.** And the “IL-4 levels in spinal cord” value ([1]; day 26, ORY-LSD1 180 µg/kg)?
**A.** The value was “significant increase in the levels of IL-4”.

**Q.** And the “IFNγ and IP-10 levels in spinal cord” value [1]?
**A.** Its value is “this decrease did not reach significance”.

**Q.** And the “IL-1β levels in spinal cord” value [1]?
**A.** Its value is “significantly reduced the exacerbated levels of IL-1β”.

**Q.** What about the “infiltrating/demyelinating plaques in spinal cord” value [2] of the same compound?
**A.** Its value is “reduced the presence of infiltrating/demyelinating plaques in both cervical and lumbar segments”.

**Q.** And the “plaques with inflammatory infiltrates and areas of demyelination” value ([2]; day 26, lumbar and cervical, ORY-LSD1 180 µg/kg)?
**A.** The value was “significantly reduced the number of plaques”.

**Q.** What about the mean clinical score ([3]; ORY-2001 0.5 mg/kg) of the same compound?
**A.** Its mean clinical score is “reduced the mean clinical score”.

**Q.** What about the “animals with mild clinical signs (clinical score ≤ 2)” value ([3]; EAE experiment 1 (severe), p.o. ORY-2001 1 mg/kg) of the same compound?
**A.** Its value is 60%.

**Q.** What about the “effect on disease severity” value ([3]; EAE experiment 1 (severe), p.o. ORY-2001 1 mg/kg, ORY-LSD1 180 µg/kg) of the same compound?
**A.** Its value is “significantly reduced disease severity”.

**Q.** What about the “animals with severe manifestations/signs of the disease” value ([3]; EAE experiment 1 (severe), p.o. ORY-2001 1 mg/kg, ORY-LSD1 180 µg/kg (maximum clinical score ≥ 4.0)) of the same compound?
**A.** The value was 10%.

**Q.** And the “mean maximum clinical score” value ([3]; EAE experiment 1 (severe), p.o. ORY-2001 1 mg/kg, ORY-LSD1 180 µg/kg, days 12-16 and 19-23)?
**A.** The value was 1.8.

**Q.** What about the “mice with no or only mild clinical signs at the end of the study” value ([3]; EAE experiment 2) of the same compound?
**A.** The value was 70–80%.

**Q.** What about the “effect on clinical course / disease severity” value ([3]; EAE experiment 2 (mild), p.o. ORY-2001 0.05, 0.5, 1 mg/kg, ORY-LSD1 90, 180 µg/kg, rasagiline 3 mg/kg) of the same compound?
**A.** Its value is “significantly reduced disease severity”.

**Q.** What about the “mice with mild clinical signs” value [3, 5] of the same compound?
**A.** The value was 50%.

**Q.** And the “mice with no clinical signs” value [3, 5]?
**A.** Its value is 10%.

**Q.** What about the “duration of protection after short term treatment” value ([3]; EAE experiment 2, 40 days after disease onset) of the same compound?
**A.** Its value is “long-lasting protective effect”.

**Q.** What about the “animals with severe signs (maximum clinical score 3.5–6)” value ([3]; EAE experiment 2, highest dose tested) of the same compound?
**A.** The value was “none”.

**Q.** And the relapse ([3]; EAE experiment 2, lowest dose 0.05 mg/kg)?
**A.** The relapse was “suffered a relapse during the last week of follow-up”.

**Q.** And the “clinical signs at the peak of the disease” value ([3]; EAE sub-chronic phase, to day 26, p.o. ORY-2001 0.5 mg/kg, ORY-LSD1 180 µg/kg)?
**A.** Its value is “reduced the clinical signs”.

**Q.** What about the “severity of symptoms in treated mice” value ([3]; EAE sub-chronic phase, ORY-2001 0.5 mg/kg) of the same compound?
**A.** The value was “displayed only mild symptoms”.

**Q.** What about the cellularity in spleen ([4]; day 17) of the same compound?
**A.** Its cellularity in spleen is “increased it significantly in the spleen”.

**Q.** And the “CD4+ T cell population of the lymph nodes” value ([4]; day 17)?
**A.** Its value is “increased the CD^4+ T cell population of the lymph nodes”.

**Q.** And the “cellularity in lymph nodes” value ([4]; day 17)?
**A.** Its value is “increased the cellularity in lymph nodes”.

**Q.** What about the “number of effector T cells in lymph nodes” value ([4]; day 17) of the same compound?
**A.** Its value is “significantly increased”.

**Q.** What about the “number of immune cells in spleen and lymph nodes” value ([4]; day 26, ORY-LSD1 180 µg/kg) of the same compound?
**A.** The value was “significant increase in the number of immune cells”.
